Results published in patent US20040126325A1, “Medicinal aerosol solution formulation products with improved chemical stability” (priority 2002, published 2004).

Columns and labels:
[1] = Stability of Budesonide solution formulations: recovery of budesonide after storage; assay type: physicochemical
Description: Cans of Budesonide in solution according to the following formulation were manufactured: […]
Budesonide 400 mg (200 mcg/shot)
Anodized and lacquered cans and non ethanol extracted valves were utilized. The cans were put on stability at 50° C. (inverted)
Cans with the same formulation were prepared and in this case ethanol extracted valves were utilized.

[2] = Stability of Budesonide solution formulations: determination of degradation products (related substances); assay type: physicochemical
Description: Two cans of anodized aluminum prepared as per example 2 were submitted to the determination of degradation products of the active ingredient.
It was noticed in this way that after a lag time of 6 months at 40° C. the degradation rate increases with the same pattern seen in the first example. […] An explanation of the process is that peroxides may leach into the solution after a while, thus starting a radicalic degradation of Budesonide.

## CCCC1O[C@@H]2C[C@H]3[C@@H]4CCC5=CC(=O)C=C[C@]5(C)[C@H]4[C@@H](O)C[C@]3(C)[C@]2(C(=O)CO)O1 (stereo partly shown) [Budesonide]
[1]; anodized and lacquered cans, non ethanol extracted valves, 50° C. inverted
  Degradation observed: high degree of degradation
[1]; ethanol extracted valves, compared with non extracted valves (Example 1)
  Stability of the solution formulation: much higher stability
[2]; 40° C., anodized aluminum cut edge cans, ethanol extracted valves, inverted, does not occur if stored upright
  Lag time after which the degradation rate increases: 6 months
[2]; finishing of the cans changed from cut edge to rolled neck
  Stability of the solution: greatly increased
